In BindingDB's records for doi:10.1002/bip.20588 (University of California Davis, 2006):
*1 amine or outer side, *2 acyl side, *3 side chain or, on linkers, in order; H or OH if unused. Where a SMILES comes first, the peptide text is derived from it. [ ]: non-standard residue; d: D form. The star is where a group is joined. ξ: configuration not given here. Pro(5R-Ph) = O=C(O)[C@@H]1CC[C@H](c2ccccc2)N1; Leu(4,5-dehydro) = C=C(C)C[C@H](N)C(=O)O; X1 = O=C(Cc1ccc(N[*:1])cc1)[*:2]; Aad = N[C@@H](CCCC(=O)O)C(=O)O; Ile(3ξ) = CCC(C)[C@H](N)C(=O)O; NH(2-Me-phenyl) = Cc1ccccc1N*; hLeu = CC(C)CC[C@H](N)C(=O)O; Dpg = CCCC(N)(CCC)C(=O)O; Nle = CCCC[C@H](N)C(=O)O; CO = O=C([*:1])[*:2]

Each compound was assayed against Integrin alpha-4/beta-1 (Homo sapiens, UniProt P05556+P13612, T112H) (assay: Jurkat Cell Adhesion Inhibition Assay). Settings: not given.
Experimental: Binding affinities (IC50) of the ligands were studied in a Jurkat cell adhesion assay by inhibiting the alpha-4/beta-1 mediated cell adhesion to CS-1 peptides. The 96-well plates were coated with neutravidin, followed by biotinconjugated CS-1 peptides. Jurkat cells with series dilutions of tested ligands in binding buffer were added and allowed to bind for 30 min. Bound cells were recorded using a 96-well plate reader at 570 nm. IC50 values were calculated from inhibition curves resulting from the concentration-dependent inhibition
An IC50 of 2.8 nM was found for C=C(C)C[C@H](NC(=O)Cc1ccc(NC(=O)Nc2ccccc2C)cc1)C(=O)N[C@@H](CC(=O)O)C(=O)N[C@H](C(=O)N1CCC[C@H]1C(N)=O)C(C)CC (stereo partly drawn) [(3S)-3-{[(2S,3S)-1-[(2S)-2-carbamoylpyrrolidin-1-yl]-3-methyl-1-oxopentan-2-yl]carbamoyl}-3-[(2S)-4-methyl-2-[1-(4-{[(2-methylphenyl)carbamoyl]amino}phenyl)acetamido]pent-4-enamido]propanoic acid] ({NH(2-Me-phenyl)-CO}-[X1][Leu(4,5-dehydro)]D[Ile(3ξ)]P-NH2) in this work.
An IC50 of 1.9 nM was found for CCC(C)[C@H](NC(=O)[C@H](CC(=O)O)NC(=O)[C@H](CC(C)C)NC(=O)Cc1ccc(NC(=O)Nc2ccccc2C)cc1)C(=O)N1CCC[C@H]1C(N)=O (stereo partly drawn) [(3S)-3-{[(2S,3S)-1-[(2S)-2-carbamoylpyrrolidin-1-yl]-3-methyl-1-oxopentan-2-yl]carbamoyl}-3-[(2S)-4-methyl-2-[1-(4-{[(2-methylphenyl)carbamoyl]amino}phenyl)acetamido]pentanamido]propanoic acid] ({NH(2-Me-phenyl)-CO}-[X1]LD[Ile(3ξ)]P-NH2) in this work.
An IC50 of 3 nM was found for CCC(C)[C@H](NC(=O)[C@H](CC(=O)O)NC(=O)[C@H](CCC(C)C)NC(=O)Cc1ccc(NC(=O)Nc2ccccc2C)cc1)C(=O)N1CCC[C@H]1C(N)=O (stereo partly drawn) [(3S)-3-{[(2S,3S)-1-[(2S)-2-carbamoylpyrrolidin-1-yl]-3-methyl-1-oxopentan-2-yl]carbamoyl}-3-[(2S)-5-methyl-2-[1-(4-{[(2-methylphenyl)carbamoyl]amino}phenyl)acetamido]hexanamido]propanoic acid] ({NH(2-Me-phenyl)-CO}-[X1][hLeu]D[Ile(3ξ)]P-NH2) in this work.
An IC50 of 450 nM was found for CCCC(CCC)(NC(=O)Cc1ccc(NC(=O)Nc2ccccc2C)cc1)C(=O)N[C@@H](CC(=O)O)C(=O)N[C@H](C(=O)N1CCC[C@H]1C(N)=O)C(C)CC (stereo partly drawn) [(3S)-3-{[(2S,3S)-1-[(2S)-2-carbamoylpyrrolidin-1-yl]-3-methyl-1-oxopentan-2-yl]carbamoyl}-3-{2-[1-(4-{[(2-methylphenyl)carbamoyl]amino}phenyl)acetamido]-2-propylpentanamido}propanoic acid] ({NH(2-Me-phenyl)-CO}-[X1][Dpg]D[Ile(3ξ)]P-NH2) in this work.
An IC50 of 3.4 nM was found for CCCC[C@H](NC(=O)Cc1ccc(NC(=O)Nc2ccccc2C)cc1)C(=O)N[C@@H](CCCC(=O)O)C(=O)N[C@H](C(=O)N1CCC[C@H]1C(N)=O)C(C)CC (stereo partly drawn) [(5S)-5-{[(2S,3S)-1-[(2S)-2-carbamoylpyrrolidin-1-yl]-3-methyl-1-oxopentan-2-yl]carbamoyl}-5-[(2S)-2-[1-(4-{[(2-methylphenyl)carbamoyl]amino}phenyl)acetamido]hexanamido]pentanoic acid] ({NH(2-Me-phenyl)-CO}-[X1][Nle][Aad][Ile(3ξ)]P-NH2) in this work.

Same assay, conditions: pH 7.5; 22 °C
An IC50 of 5.3 nM was found for CCCC[C@H](NC(=O)Cc1ccc(NC(=O)Nc2ccccc2C)cc1)C(=O)N[C@@H](CC(=O)O)C(=O)N[C@H](C(=O)N1CC(OCc2ccccc2)C[C@H]1C(N)=O)C(C)CC (stereo partly drawn) [(3S)-3-{[(2S,3S)-1-[(2S)-4-(benzyloxy)-2-carbamoylpyrrolidin-1-yl]-3-methyl-1-oxopentan-2-yl]carbamoyl}-3-[(2S)-2-[1-(4-{[(2-methylphenyl)carbamoyl]amino}phenyl)acetamido]hexanamido]propanoic acid] in this work.
An IC50 of 38 nM was found for CCCC[C@H](NC(=O)Cc1ccc(NC(=O)Nc2ccccc2C)cc1)C(=O)N[C@@H](CC(=O)O)C(=O)N[C@H](C(=O)N1[C@@H](c2ccccc2)CC[C@H]1C(N)=O)C(C)CC (stereo partly drawn) [(3S)-3-{[(2S,3S)-1-[(2S,5R)-2-carbamoyl-5-phenylpyrrolidin-1-yl]-3-methyl-1-oxopentan-2-yl]carbamoyl}-3-[(2S)-2-[1-(4-{[(2-methylphenyl)carbamoyl]amino}phenyl)acetamido]hexanamido]propanoic acid] ({NH(2-Me-phenyl)-CO}-[X1][Nle]D[Ile(3ξ)][Pro(5R-Ph)]-NH2) in this work.
An IC50 of 3.2 nM was found for CCCC[C@H](NC(=O)Cc1ccc(NC(=O)Nc2ccccc2C)cc1)C(=O)N[C@@H](CC(=O)O)C(=O)N[C@H](C(=O)N1Cc2ccccc2C[C@@H]1C(N)=O)C(C)CC (stereo partly drawn) [(3S)-3-{[(2S,3S)-1-[(3R)-3-carbamoyl-1,2,3,4-tetrahydroisoquinolin-2-yl]-3-methyl-1-oxopentan-2-yl]carbamoyl}-3-[(2S)-2-[1-(4-{[(2-methylphenyl)carbamoyl]amino}phenyl)acetamido]hexanamido]propanoic acid] in this work.
An IC50 of 3.1 nM was found for CCCC[C@H](NC(=O)Cc1ccc(NC(=O)Nc2ccccc2C)cc1)C(=O)N[C@@H](CC(=O)O)C(=O)N[C@H](C(=O)N1CSC[C@H]1C(N)=O)C(C)CC (stereo partly drawn) [(3S)-3-{[(2S,3S)-1-[(4R)-4-carbamoyl-1,3-thiazolidin-3-yl]-3-methyl-1-oxopentan-2-yl]carbamoyl}-3-[(2S)-2-[1-(4-{[(2-methylphenyl)carbamoyl]amino}phenyl)acetamido]hexanamido]propanoic acid] in this work.
An IC50 of 3.2 nM was found for CCCC[C@H](NC(=O)Cc1ccc(NC(=O)Nc2ccccc2C)cc1)C(=O)N[C@@H](CC(=O)O)C(=O)N[C@H](C(=O)N1CSC[C@@H]1C(N)=O)C(C)CC (stereo partly drawn) [(3S)-3-{[(2S,3S)-1-[(4S)-4-carbamoyl-1,3-thiazolidin-3-yl]-3-methyl-1-oxopentan-2-yl]carbamoyl}-3-[(2S)-2-[1-(4-{[(2-methylphenyl)carbamoyl]amino}phenyl)acetamido]hexanamido]propanoic acid] in this work.
